Like-named read-outs stand apart in the source and are kept apart here.
Key:
[1] = MTT assay, proliferation inhibition; assay type: cell-based; settings: Homo sapiens, LN-18 gastric cancer, read-out: Proliferation inhibition rate
Description: (§1) 1. Cytotoxicity Assay Using Human Tumor Cell Lines
(§2) Paclitaxel was used as the positive drug.

A2780 ovarian cancer = experiment: MTT assay, proliferation inhibition; assay type: cell-based; settings: Homo sapiens, read-out: Proliferation inhibition rate
Description: as §1, §2

A375 melanoma = experiment: MTT assay, proliferation inhibition; assay type: cell-based; settings: Homo sapiens, A-375, read-out: Proliferation inhibition rate
Description: as §1, §2

[2] = tested on: A549 non-small cell lung cancer; experiment: MTT assay, proliferation inhibition; assay type: cell-based; settings: Homo sapiens, read-out: Proliferation inhibition rate
Description: as §1, §2

B16 melanoma = experiment: MTT assay, proliferation inhibition; assay type: cell-based; settings: read-out: Proliferation inhibition rate
Description: as §1, §2

BGC-823 gastric cancer = experiment: MTT assay, proliferation inhibition; assay type: cell-based; settings: Homo sapiens, read-out: Proliferation inhibition rate
Description: as §1, §2

DU145 prostate cancer = experiment: MTT assay, proliferation inhibition; assay type: cell-based; settings: Homo sapiens, DU-145, read-out: Proliferation inhibition rate
Description: as §1, §2

HCT 116 colon cancer = experiment: MTT assay, proliferation inhibition; assay type: cell-based; settings: Homo sapiens, read-out: Proliferation inhibition rate
Description: as §1, §2

HL60 leukemia = experiment: MTT assay, proliferation inhibition; assay type: cell-based; settings: Homo sapiens, HL-60, read-out: Proliferation inhibition rate
Description: as §1, §2

HT29 colon cancer = experiment: MTT assay, proliferation inhibition; assay type: cell-based; settings: Homo sapiens, HT-29, read-out: Proliferation inhibition rate
Description: as §1, §2

HeLa cervical cancer = experiment: MTT assay, proliferation inhibition; assay type: cell-based; settings: Homo sapiens, read-out: Proliferation inhibition rate
Description: as §1, §2

K562 leukemia = experiment: MTT assay, proliferation inhibition; assay type: cell-based; settings: Homo sapiens, read-out: Proliferation inhibition rate
Description: as §1, §2

LNCaP prostate cancer = experiment: MTT assay, proliferation inhibition; assay type: cell-based; settings: Homo sapiens, read-out: Proliferation inhibition rate
Description: as §1, §2

MCF-7 breast cancer = experiment: MTT assay, proliferation inhibition; assay type: cell-based; settings: Homo sapiens, MCF7, read-out: Proliferation inhibition rate
Description: as §1, §2

MDA-MB-436 breast cancer = experiment: MTT assay, proliferation inhibition; assay type: cell-based; settings: Homo sapiens, read-out: Proliferation inhibition rate
Description: as §1, §2

[3] = tested on: NCI-H460 non-small cell lung cancer; experiment: MTT assay, proliferation inhibition; assay type: cell-based; settings: Homo sapiens, read-out: Proliferation inhibition rate
Description: as §1, §2

[4] = tested on: breast cancer cell line MCF-7; experiment: IC50 values on breast cancer cell line MCF-7; assay type: cell-based; settings: Homo sapiens
Description: From the activity evaluation data of the above-mentioned preliminary screen, it can be seen that the series of taxanes derivatives synthesized in the present invention have activity (although the activity of PCMI-43 is weakened). Afterward, most of the compounds are picked up from these derivatives to examine their IC50 values on breast cancer cell line MCF-7. Paclitaxel is used as the positive control drug. Experiments for each compound were independently repeated for three times and multiple holes were used in each experiment. The exposure time of drugs was 72 hours.

[5] = Caco-2 cell monolayer membrane transport assay; settings: human; for Papp A→B: Caco-2, Papp A-B; for recovery: Caco-2, Recovery rate in mass
Description: (§3) Caco-2 Cell Monolayer Membrane Transport Assay
(§4) Human-derived colorectal adenocarcinoma cell line Caco-2 cell monolayer model was used to study the bidirectional transport of the target compounds from the apical (AP) side to the basolateral (BL) side and from BL side to AP side. HPLC was used for quantitative analysis to calculate transport parameters, apparent permeability coefficient (Papp) and the efflux ratio.

Caco-2 cell monolayer = Caco-2 cell monolayer membrane transport assay; settings: Caco-2 cell line (21 days); for efflux ratio: Papp B-A/Papp A-B; for Papp A-B / Papp B-A: bidirectional transport, Table 5
Description: as §3, §4

[6] = MCF7, 72 h, read-out: MCF-7(IC50, nM)
[7] = Mean, Caco-2, A-B, mean of two samples
[8] = Sample-01, Caco-2, A-B, Sample-01
[9] = Sample-02, Caco-2, A-B, Sample-02
[10] = Caco-2 cell line (21 days), bidirectional transport, Table 5
[11] = MCF7, MCF-7, exposure 72 hours, mean±SD of three independent experiments, read-out: MCF-7(IC50)

Row | Compound | inhibition at 1 µM [1] | inhibition at 1 µM (A2780 ovarian cancer) | inhibition at 1 µM [2] | inhibition at 1 µM (B16 melanoma) | inhibition at 1 µM (BGC-823 gastric cancer) | inhibition at 1 µM (DU145 prostate cancer) | inhibition at 1 µM (HCT 116 colon cancer) | inhibition at 1 µM (HL60 leukemia) | inhibition at 1 µM (HT29 colon cancer) | inhibition at 1 µM (HeLa cervical cancer) | inhibition at 1 µM (K562 leukemia) | inhibition at 1 µM (LNCaP prostate cancer) | inhibition at 1 µM (MCF-7 breast cancer) | inhibition at 1 µM (MDA-MB-436 breast cancer) | inhibition at 1 µM [3] | Papp A→B [5, 8] | Papp A→B [5, 9] | recovery [5, 7] | recovery [5, 8] | recovery [5, 9] | also measured
1 | CO[C@H]1C[C@H]2OC[C@@]2(OC(C)=O)[C@H]2[C@H](OC(=O)c3ccccc3)[C@]3(O)C[C@H](OC(=O)[C@H](O)[C@@H](NC(=O)OC(C)(C)C)c4ccccc4)C(C)=C([C@@H](OC(=O)N(C)C)C(=O)[C@]12C)C3(C)C [PCMI-22] | 95.5% | 96.3% | 69.9% | 74.7% | 92% | 87.1% | 81.1% | 97.5% | 87.9% | 102% | 92.2% | 80.9% | 85.7% | 81.1% | 86.5% | 9 ×10⁻⁶ cm/s | 8.38 ×10⁻⁶ cm/s | 89.4% | 92.4% | 86.4% | inhibition at 1 µM (A375 melanoma): 87.7%; IC50 [4, 6]: 1.58 ± 0.04 nM; Papp A→B [5, 7]: 8.69 ×10⁻⁶ cm/s; efflux ratio (Caco-2 cell monolayer): 4.08; Papp A-B (Caco-2 cell monolayer): 8.11 10^−6 cm/s; Papp B-A (Caco-2 cell monolayer): 33.11 10^−6 cm/s
2 | CO[C@H]1C[C@H]2OC[C@@]2(OC(C)=O)[C@H]2[C@H](OC(=O)c3ccccc3)[C@]3(O)C[C@H](OC(=O)[C@H](O)[C@H](CC(C)C)NC(=O)OC(C)(C)C)C(C)=C([C@@H](OC(=O)N(C)C)C(=O)[C@]12C)C3(C)C [PCMI-25] | 92.5% | 94.8% | 69.5% | 71.8% | 90.2% | 82.9% | 78.3% | 97.7% | 87.3% | 101% | 90.9% | 80.4% | 89.8% | 78.4% | 80.7% | 6.41 ×10⁻⁶ cm/s | 9.92 ×10⁻⁶ cm/s | 71.2% | 63.9% | 78.5% | inhibition at 1 µM (A375 melanoma): 89%; IC50 [4, 6]: 1.7 ± 0.08 nM; Papp A→B [5, 10]: 8.25 ×10⁻⁶ cm/s; Papp B-A (Caco-2 cell monolayer): 32.58 10^−6 cm/s
3 | COC(=O)O[C@H]1C(=O)[C@]2(C)[C@@H](OC)C[C@H]3OC[C@@]3(OC(C)=O)[C@H]2[C@H](OC(=O)c2ccccc2)[C@]2(O)C[C@H](OC(=O)[C@H](O)[C@@H](NC(=O)OC(C)(C)C)c3ccccc3)C(C)=C1C2(C)C [PCMI-26] | 89% | 95.8% | 66.2% | 69.7% | 89.2% | 86.2% | 81.1% | 96.8% | 88.8% | 101% | 91.4% | 79.8% | 95.5% | 76.3% | 86.4% | 8.45 ×10⁻⁶ cm/s | 9.06 ×10⁻⁶ cm/s | 81.4% | 80.9% | 82% | inhibition at 1 µM (A375 melanoma): 94.2%; IC50 [4, 11]: 1.4 ± 0.1 nM; Papp A→B [5, 7]: 8.75 ×10⁻⁶ cm/s; efflux ratio (Caco-2 cell monolayer): 4.22; Papp A-B (Caco-2 cell monolayer): 6.91 10^−6 cm/s; Papp B-A (Caco-2 cell monolayer): 29.18 10^−6 cm/s
4 | COC(=O)O[C@H]1C(=O)[C@]2(C)[C@@H](OC)C[C@H]3OC[C@@]3(OC(C)=O)[C@H]2[C@H](OC(=O)c2ccccc2)[C@]2(O)C[C@H](OC(=O)[C@H](O)[C@H](CC(C)C)NC(=O)OC(C)(C)C)C(C)=C1C2(C)C [PCMI-28] | 97.5% | 95.6% | 72.5% | 74.1% | 92.2% | 85.7% | 81.1% | 96.9% | 89.1% | 99.7% | 92.6% | 84% | 103% | 84.3% | 85.8% | 8.58 ×10⁻⁶ cm/s | 9.46 ×10⁻⁶ cm/s | 70.8% | 64.8% | 76.8% | IC50 [4, 6]: 2.9 ± 0.06 nM; Papp A→B [5, 7]: 9.02 ×10⁻⁶ cm/s; Papp A-B (Caco-2 cell monolayer): 8.87 10^−6 cm/s; Papp B-A (Caco-2 cell monolayer): 33.26 10^−6 cm/s
5 | CO[C@H]1C(=O)[C@]2(C)[C@@H](OC(=O)N(C)C)C[C@H]3OC[C@@]3(OC(C)=O)[C@H]2[C@H](OC(=O)c2ccccc2)[C@]2(O)C[C@H](OC(=O)[C@H](O)[C@@H](NC(=O)N(C)C)c3ccccc3)C(C)=C1C2(C)C [PCMI-35] | 93.5% | 94.2% | 76.2% | 80.3% | 95.8% | 89.8% | 65.5% | 97.5% | 87.3% | 99.9% | 92.7% | 85.3% | 92.5% | 80.2% | 86.9% | 3.21 ×10⁻⁶ cm/s | 2.87 ×10⁻⁶ cm/s | 91.3% | 95% | 87.6% | inhibition at 1 µM (A375 melanoma): 95.3%; IC50 [4, 11]: 4.28 ± 0.08 nM; Papp A→B [5, 7]: 3.04 ×10⁻⁶ cm/s
6 | COC(=O)O[C@H]1C[C@H]2OC[C@@]2(OC(C)=O)[C@H]2[C@H](OC(=O)c3ccccc3)[C@]3(O)C[C@H](OC(=O)[C@H](O)[C@@H](NC(=O)OC(C)(C)C)c4ccccc4)C(C)=C([C@@H](OC)C(=O)[C@]12C)C3(C)C [PCMI-36] | 95.9% | 96.9% | 78% | 81.8% | 94.6% | 88.3% | 67.2% | 97.8% | 89.7% | 102% | 94.5% | 83.8% | 107% | 77.5% | 90.3% | 6.66 ×10⁻⁶ cm/s | 7.29 ×10⁻⁶ cm/s | 88.5% | 95.5% | 81.4% | inhibition at 1 µM (A375 melanoma): 94%; IC50 [4, 6]: 4.97 ± 0.06 nM
7 | CCSC(=O)O[C@H]1C[C@H]2OC[C@@]2(OC(C)=O)[C@H]2[C@H](OC(=O)c3ccccc3)[C@]3(O)C[C@H](OC(=O)[C@H](O)[C@@H](NC(=O)N(C)C)c4ccccc4)C(C)=C([C@@H](OC)C(=O)[C@]12C)C3(C)C [PCMI-40] | 93.9% | 94.2% | 80.2% | 83.7% | 93.3% | 90% | 67.3% | 96.9% | 87.2% | 99.6% | 92.7% | 87.2% | 94.7% | 83.6% | 87.3% | 3.78 ×10⁻⁶ cm/s | 4.05 ×10⁻⁶ cm/s | 74.5% | 78.2% | 70.7% | inhibition at 1 µM (A375 melanoma): 95.2%; IC50 [4, 6]: 5.49 ± 0.14 nM; Papp B→A ([5]; Caco-2): 37.2 ×10⁻⁶ cm/s; efflux ratio ([5]; Caco-2): 5.36; Papp A→B [5, 10]: 6.92 ×10⁻⁶ cm/s; Papp A→B [5, 7]: 3.92 ×10⁻⁶ cm/s
8 | CO[C@H]1C(=O)[C@]2(C)CC[C@H]3OC[C@@]3(OC(C)=O)[C@H]2[C@H](OC(=O)c2ccccc2)[C@]2(O)C[C@H](OC(=O)[C@H](O)[C@@H](NC(=O)OC(C)(C)C)c3ccccc3)C(C)=C1C2(C)C [PCMI-41] | 94.6% | 95.8% | 77% | 81.1% | 93.1% | 87.6% | 65% | 97.7% | 88.3% | 101% | 94.3% | 82.5% | 95.5% | 80.1% | 85.7% | 4.27 ×10⁻⁶ cm/s | 5.79 ×10⁻⁶ cm/s | 101% | 97% | 105% | inhibition at 1 µM (A375 melanoma): 91.6%; IC50 [4, 11]: 3.33 ± 0.11 nM; Papp A→B [5, 7]: 5.03 ×10⁻⁶ cm/s
